Laboratory results published in patent US8361998B2, “Compounds and their use as IKACh blockers” (AstraZeneca AB, priority 2010, dated 2013).
Where two headings read alike, the source gives them in different places.

Target: T1, human cardiac ion channel proteins hKir3.1/Kir3.4 (Homo sapiens, UniProt P48544+P48549)
T1 construct: expressed in transfected cells
T1 sequence (P48549 1-501): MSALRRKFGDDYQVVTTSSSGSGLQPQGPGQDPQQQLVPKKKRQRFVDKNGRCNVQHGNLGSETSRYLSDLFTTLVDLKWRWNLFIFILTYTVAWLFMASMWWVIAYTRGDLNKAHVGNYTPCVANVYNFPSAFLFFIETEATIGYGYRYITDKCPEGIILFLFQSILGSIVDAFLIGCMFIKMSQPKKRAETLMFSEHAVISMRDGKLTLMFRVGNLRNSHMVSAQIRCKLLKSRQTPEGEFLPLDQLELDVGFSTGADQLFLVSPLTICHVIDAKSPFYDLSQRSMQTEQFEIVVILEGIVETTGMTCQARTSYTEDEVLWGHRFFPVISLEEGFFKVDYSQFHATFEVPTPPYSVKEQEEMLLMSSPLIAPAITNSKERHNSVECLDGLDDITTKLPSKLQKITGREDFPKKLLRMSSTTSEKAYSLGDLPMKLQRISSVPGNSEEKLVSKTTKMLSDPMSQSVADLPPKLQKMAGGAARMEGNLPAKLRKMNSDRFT
T1 sequence (P48544 1-419): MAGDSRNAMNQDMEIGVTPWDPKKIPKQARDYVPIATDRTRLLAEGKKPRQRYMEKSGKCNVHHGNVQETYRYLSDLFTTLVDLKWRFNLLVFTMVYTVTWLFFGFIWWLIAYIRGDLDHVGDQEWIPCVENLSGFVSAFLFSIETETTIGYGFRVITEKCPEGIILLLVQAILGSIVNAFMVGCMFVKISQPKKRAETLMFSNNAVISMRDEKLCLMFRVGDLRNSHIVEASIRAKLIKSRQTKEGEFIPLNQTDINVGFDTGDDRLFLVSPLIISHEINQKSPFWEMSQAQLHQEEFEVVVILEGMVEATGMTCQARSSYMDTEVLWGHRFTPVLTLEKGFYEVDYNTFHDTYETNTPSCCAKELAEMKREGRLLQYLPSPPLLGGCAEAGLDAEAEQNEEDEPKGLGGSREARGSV
Experiment: Atomic Absorption Screening (AAS) Rb efflux assay of hKir3.1/Kir3.4 block, carbachol/high K+ stimulated, 10-pt or 7-pt CR
Assay type: cell-based
Summary of the method: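 CHO-K1 cells stably co-expressing human Kir3.1/Kir3.4 were Rb-loaded for 3 h at 37° C, preincubated with compound 5 min at RT, then stimulated 10 min with 10 μM carbachol plus 20 mM KCl (final). Supernatant Rb was measured by atomic absorption. Compounds ran at 0.003–67 μmol/L (10-pt) or 0.037–27 μmol/L (7-pt), threefold dilutions; IC50s are means of >4 or >3 replicates respectively.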

[1] = 10-pt CR (0.003 to 67 μmol/L), AAS Rb efflux, CHO-K1 cells expressing hKir3.1/Kir3.4, mean of >4 replicates, read-out: IKACh IC50 10-pt CR, AAS
[2] = 7-pt CR (0.037 to 27 μmol/L), AAS Rb efflux, CHO-K1 cells expressing hKir3.1/Kir3.4, mean of >3 replicates, read-out: IKACh IC50 7-pt CR, AAS
[3] = printed as IC50 >67 μM in the 10-pt CR assay or IC50 >27 μM in the 7-pt CR assay, assay format per compound not stated, read-out: IC50

Compound | IC50 [1] | also measured
CCCC[C@@H](CN1CC(O)C1)N(C)C(=O)c1cc(F)ccc1F [Example 33.9, 2,5-Difluoro-N-[(2S)-1-(3-hydroxyazetidin-1-yl)hexan-2-yl]-N-methylbenzamide] | 4.3 µM | –
CN(C(=O)c1ccc(Cl)cc1)[C@@H](CN1CC(O)C1)C1CCC1 [Example 35.1, 4-Chloro-N-[(1R)-1-cyclobutyl-2-(3-hydroxyazetidin-1-yl)ethyl]-N-methylbenzamide] | 3.4 µM | –
COC[C@@H]1CCCN1C[C@H](C(C)C)N(C)C(=O)c1ccc(Cl)cc1 [Example 3.19, 4-Chloro-N-((S)-1-((S)-2-(methoxymethyl)pyrrolidin-1-yl)-3-methylbutan-2-yl)-N-methylbenzamide] | 6 µM | –
COC[C@@H]1CCCN1C[C@H](C(C)C)N(C)C(=O)c1ccc(Br)cc1 [Example 3.20, 4-Bromo-N-((S)-1-((S)-2-(methoxymethyl)pyrrolidin-1-yl)-3-methylbutan-2-yl)-N-methylbenzamide] | 8.4 µM | –
CN(C(=O)c1ccc(Br)cc1)C(C)(C)CN1CCCC1 [Example 16.7, 4-Bromo-N-methyl-N-(2-methyl-1-(pyrrolidin-1-yl)propan-2-yl)benzamide] | 14 µM | –
CC(C)[C@@H](CN1CCC1)N(C)C(=O)c1cccc(C(F)(F)F)c1 [Example 1.15, (S)-N-(1-(Azetidin-1-yl)-3-methylbutan-2-yl)-N-methyl-3-(trifluoromethyl)benzamide] | 2.3 µM | –
COc1ccc(C(=O)N(C)C(CN2CC(O)C2)C2CCCC2)cc1 (single isomer, unassigned) [32.2, isomer 2] | 15 µM | –
CN(C(=O)c1cc(F)cc(C#N)c1)[C@H](CN1CC(O)C1)C1CCCCC1 [Example 36.6, 3-Cyano-N-[(1S)-1-cyclohexyl-2-(3-hydroxyazetidin-1-yl)ethyl]-5-fluoro-N-methylbenzamide] | 1.9 µM | –
CCC[C@@H](CN1CC(O)C1)N(C)C(=O)c1ccc(Br)cc1 [Example 8.7, (S)-4-Bromo-N-(1-(3-hydroxyazetidin-1-yl)pentan-2-yl)-N-methylbenzamide] | 1.7 µM | –
CC[C@H](C)[C@@H](CN1CCCC1)N(C)C(=O)c1ccc(Cl)cc1Cl [Example 2.6, 2,4-Dichloro-N-methyl-N-((2S,3S)-3-methyl-1-(pyrrolidin-1-yl)pentan-2-yl)benzamide] | 2 µM | –
CC(C)[C@@H](CN1CCCC1)N(C)C(=O)c1cccc(Cl)c1F [Example 16.17, (S)-3-Chloro-2-fluoro-N-methyl-N-(3-methyl-1-(pyrrolidin-1-yl)butan-2-yl)benzamide] | – | IC50 [2]: 1.2 µM
CC(C)[C@@H](CN1CC(F)C1)N(C)C(=O)c1ccc(Br)cc1 [Example 1.7, (S)-4-Bromo-N-(1-(3-fluoroazetidin-1-yl)-3-methylbutan-2-yl)-N-methylbenzamide] | 5 µM | –
Cc1cc(C(=O)N(C)[C@H](CN2C[C@@H](O)[C@H](O)C2)C(C)C)ccc1F [N-((S)-1-((3R,4R)-3,4-Dihydroxypyrrolidin-1-yl)-3-methylbutan-2-yl)-4-fluoro-N,3-dimethylbenzamide] | – | IC50 [3]: > 27 µM
CC(C)[C@@H](CN1CCC1)N(C)C(=O)c1ccc(C#N)cc1 [(S)-N-(1-(Azetidin-1-yl)-3-methylbutan-2-yl)-4-cyano-N-methylbenzamide] | – | IC50 [3]: > 27 µM
CC(C)[C@@H](CCN1CCCC1)N(C)C(=O)c1ccccc1 [N-Methyl-N-[(1R)-2-methyl-1-(2-pyrrolidin-1-ylethyl)propyl]benzamide] | – | IC50 [3]: > 27 µM
CC(C)[C@@H](CN1CC(O)C1)N(C)C(=O)c1ccc(F)c(CO)c1 [4-Fluoro-N-[(1S)-1-[(3-hydroxyazetidin-1-yl)methyl]-2-methyl-propyl]-3-(hydroxymethyl)-N-methyl-benzamide] | – | IC50 [3]: > 27 µM
CC[C@H](C)[C@@H](CN1CC(O)C1)N(C)C(=O)c1cc(C)ccc1OC [Example 29.8, N-((2S,3S)-1-(3-Hydroxyazetidin-1-yl)-3-methylpentan-2-yl)-2-methoxy-N,5-dimethylbenzamide] | 11 µM | –

Compound | IC50 [1] | also measured
COC1CCN(C[C@H](C(C)C)N(C)C(=O)c2ccc(C)c(C)c2)CC1 [Example 3.12, (S)-N-(1-(4-Methoxypiperidin-1-yl)-3-methylbutan-2-yl)-N,3,4-trimethylbenzamide] | 2.5 µM | –
CN(C(=O)c1ccc(F)c(F)c1)[C@H](CN1CC(O)C1)C1CCC1 [Example 39.3, (S)—N-(1-Cyclobutyl-2-(3-hydroxyazetidin-1-yl)ethyl)-3,4-difluoro-N-methylbenzamide] | 0.41 µM | –
CC[C@@H](CN1CC(O)C1)N(C)C(=O)c1ccc(Cl)c(F)c1 [Example 39.11, (S)-4-Chloro-3-fluoro-N-(1-(3-hydroxyazetidin-1-yl)butan-2-yl)-N-methylbenzamide] | 1.6 µM | –
CC(C)[C@@H](CN1CCCCC1)N(C)C(=O)c1cccc(C(F)(F)F)c1 [Example 16.32, N-Methyl-N-[(1S)-2-methyl-1-(piperidin-1-ylmethyl)propyl]-3-(trifluoromethyl)-benzamide] | – | IC50 [2]: 4 µM
CN(C(=O)c1ccc(C#N)cc1)[C@H](CN1CCC1)C1CC1 [N-[(1S)-2-(Azetidin-1-yl)-1-cyclopropyl-ethyl]-4-cyano-N-methyl-benzamide] | – | IC50 [3]: > 27 µM
CC[C@H](C)[C@@H](CN1CC(O)C1)N(C)C(=O)c1ccccc1 [Example 29.4, N-((2S,3S)-1-(3-Hydroxyazetidin-1-yl)-3-methylpentan-2-yl)-N-methylbenzamide] | 12 µM | –
Cc1cc(C(=O)N(C)[C@H](CN2CCCC2)C2CC2)ccc1F [Example 3.13, (S)-N-(1-Cyclopropyl-2-(pyrrolidin-1-yl)ethyl)-4-fluoro-N,3-di-methylbenzamide] | 3.6 µM | –
CC(C)[C@@H](CN1CCCC1)N(C)C(=O)c1cc(F)cc(F)c1 [Example 16.12, (S)-3,5-Difluoro-N-methyl-N-(3-methyl-1-(pyrrolidin-1-yl)butan-2-yl)benzamide] | 15 µM | IC50 [2]: 23 µM
CN(C(=O)c1ccc(C#N)cc1)[C@H](CN1CC(O)(C2CC2)C1)C1CC1 [Example 9.4, (S)-4-Cyano-N-(1-cyclopropyl-2-(3-cyclopropyl-3-hydroxyazetidin-1-yl)ethyl)-N-methylbenzamide] | 14 µM | –
CC(C)[C@@H](CN1C[C@H](O)[C@@H](O)C1)N(C)C(=O)c1ccc(Cl)cc1 [Example 8.14, 4-Chloro-N-((S)-1-((3S,4S)-3,4-dihydroxypyrrolidin-1-yl)-3-methylbutan-2-yl)-N-methylbenzamide] | 5.8 µM | –
CC(C)[C@@H](CCN1CCCC1)N(C)C(=O)c1ccccc1Cl [2-Chloro-N-methyl-N-[(1R)-2-methyl-1-(2-pyrrolidin-1-ylethyl)propyl]benzamide] | – | IC50 [3]: > 27 µM
CC(C)[C@@H](CN1CCCC1)N(C)C(=O)c1ccc(F)cc1 [4-Fluoro-N-methyl-N-[(1S)-2-methyl-1-(pyrrolidin-1-ylmethyl)propyl]benzamide] | – | IC50 [3]: > 27 µM
C[C@@H](CN1CC(O)C1)N(C)C(=O)c1ccc(Br)cc1 [Example 41, (S)-4-Bromo-N-(1-(3-hydroxyazetidin-1-yl)propan-2-yl)-N-methylbenzamide] | 7.3 µM | –
CC(C)[C@@H](CN1CCC1)N(C)C(=O)c1ccc(F)c(C(F)(F)F)c1 [Example 1.11, (S)-N-(1-(Azetidin-1-yl)-3-methylbutan-2-yl)-4-fluoro-N-methyl-3-(trifluoromethyl)benzamide] | 1.2 µM | –
CN(C(=O)c1ccc(F)cc1)[C@@H](CN1CC(O)C1)C1CCC1 [Example 35.5, N-[(1R)-1-Cyclobutyl-2-(3-hydroxyazetidin-1-yl)ethyl]-4-fluoro-N-methylbenzamide] | 11 µM | –
CC(C)[C@@H](CN1CCCC1)N(C)C(=O)c1ccc(OC(F)(F)F)cc1 [Example 16.15, (S)—N-Methyl-N-(3-methyl-1-(pyrrolidin-1-yl)butan-2-yl)-4-(tri-fluoromethoxy)benzamide] | – | IC50 [2]: 2.5 µM
CN(C(=O)c1ccc(F)cc1Cl)C(CN1CC(O)C1)C1CCCC1 (single isomer, unassigned) [32.6, isomer 2] | 2.3 µM | –
